Experiment [1] is described as follows: Cytotoxicity against human T47D cells assessed as reduction in cell viability after 24 hrs by MTT assay. It counts as functional, cell-based. Background: Formazan colour is commonly taken as a measure of viable cells.
Experiment [2] is described as follows: Cytotoxicity against human LNCAP cells assessed as cell growth inhibition at 200 uM after 48 hrs by MTT assay relative to control. To be noted: read-out: GI. It counts as functional.
A short description of experiment [3]: Cytotoxicity against human PC3 cells assessed as cell growth inhibition at 200 uM after 48 hrs by MTT assay relative to control. As to conditions: PC-3, 48 h, read-out: GI. It counts as functional.
A short description of experiment [4]: Cytotoxicity against human ARCaPM cells assessed as cell growth inhibition at 200 uM after 48 hrs by MTT assay relative to control. It counts as functional. To be noted: read-out: GI.
A further experiment has as its system Hepatitis C virus. The experiment in a line: Antiviral activity against Hepatitis C virus in liver transplanted patient with established HCV recurrence assessed as reduction in viral load at 20 mg/kg, iv administered for 14 days. In kind it is functional, Hepacivirus hominis.
Experiment [5] is described as follows: Antitumor activity against humanPC3 cells xenografted in nude mouse assessed as tumor growth inhibition at 100 mg/kg, po administered via gavage for 5 days per week for 7 weeks relative to control. As to conditions: Homo sapiens, PC-3, po; read-out: TGI. In kind it is functional. (In xenograft studies the graft and the host belong to different species.)
Experiment [6] is described as follows: Antitumor activity against wild type B6/129PF2 mouse lung tumor assessed reduction in urethane-induced tumor growth at 742 mg/kg, po administered via gavage for 5 days per week for 18 weeks starting from 8 weeks after urethane injection measured 25 weeks after first urethane injection. It counts as functional. To be noted: B6/129PF2, po, read-out: TGI.
Experiment [7] in a line: Downregulation of telomerase expression in human T47D cells after 72 hrs in presence of curcumin by SYBR green-dye based RT-PCR analysis. In kind it is functional, cell-based.
Experiment [8] is described as follows: Cytotoxicity against human LoVo cells assessed as reduction in cell growth at 50 to 200 uM after 24 hrs by trypan blue exclusion assay. In kind it is functional.
A short description of experiment [9]: Cytotoxicity against human LoVo cells assessed as reduction in cell growth after 24 hrs by trypan blue exclusion assay. It counts as functional, cell-based.
Experiment [10] is described as follows: Cytotoxicity against human T47D cells assessed as reduction in cell viability after 24 hrs in presence of curcumin by MTT assay. In kind it is functional, cell-based.
Experiment [11] in a line: Cytotoxicity against human DU145 cells assessed as cell growth inhibition at 100 uM after 48 hrs in presence of 25 nM doxorubicin by manual cell counting. In kind it is functional, DU-145.
A short description of experiment [12]: Cytotoxicity against human LNCAP cells assessed as cell growth inhibition at 25 uM after 48 hrs in presence of 15 nM doxorubicin by manual cell counting. In kind it is functional.
In the next experiment the target is Cytochrome P450 2C9 (Homo sapiens, UniProt P11712). The experiment in a line: Inhibition of CYP2C9 in human liver microsomes using (S)-warfarin as substrate at after 30 mins by LC-MS/MS analysis. It counts as ADME. (Liver microsomes are a subcellular fraction often used to study metabolism.)
Experiment [13] can be described thus: Antitumor activity against human HT-29 cells xenografted in nude mouse assessed as tumor growth inhibition at 200 mg/kg, po administered 5 days per week for 32 days. As to conditions: HT-29, po, read-out: TGI. It counts as functional.
The nature of experiment [14]: Cytotoxicity against human DU145 cells assessed as cell growth inhibition at 200 uM after 48 hrs by MTT assay relative to control. It counts as functional. As to conditions: DU-145, 48 h, read-out: GI.

Bounds are passed on as bounds.

Chain of Cytochrome P450 2C9 (P11712 whole entry): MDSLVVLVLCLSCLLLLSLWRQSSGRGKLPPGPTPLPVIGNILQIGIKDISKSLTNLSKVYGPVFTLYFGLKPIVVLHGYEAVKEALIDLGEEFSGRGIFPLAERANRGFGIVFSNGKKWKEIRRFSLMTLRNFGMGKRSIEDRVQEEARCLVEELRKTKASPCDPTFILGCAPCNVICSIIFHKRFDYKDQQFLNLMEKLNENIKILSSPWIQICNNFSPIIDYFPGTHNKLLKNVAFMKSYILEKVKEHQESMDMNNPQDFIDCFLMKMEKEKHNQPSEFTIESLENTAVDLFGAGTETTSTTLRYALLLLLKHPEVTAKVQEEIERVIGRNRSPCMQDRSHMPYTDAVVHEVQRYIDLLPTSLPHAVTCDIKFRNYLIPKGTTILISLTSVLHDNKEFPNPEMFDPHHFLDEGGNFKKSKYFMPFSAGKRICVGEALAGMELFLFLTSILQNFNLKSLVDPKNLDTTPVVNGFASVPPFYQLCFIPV

For the compound `COc1cc(/C=C/C(=O)CC(=O)/C=C/c2ccc(O)c(OC)c2)ccc1O` [CURCUMIN], the IC50 (usually the point on the concentration scale where inhibition reaches its midpoint) in experiment [1] was 30 µM.
In the case of `COc1cc([C@H]2Oc3cc([C@H]4Oc5cc(O)cc(O)c5C(=O)[C@@H]4O)ccc3O[C@@H]2CO)ccc1O` [SILYBIN A], the inhibition of growth at 200 µM in experiment [2] was 48.7%; in [3], 60%; in experiment [4] it was 18.5%; in experiment [14], 73.8%. In addition, in the experiment with Hepatitis C virus, the Activity worked out at 2.3. Also, the inhibition in vivo at 100 mg/kg in experiment [5] is 40%. Also, in experiment [6], the inhibition in vivo at 742 mg/kg worked out at 71%. Moreover, the IC50 in experiment [7] was 12 µM; in [9] it was 50 to 200 µM; in experiment [10], 20 µM; in [1], 110 µM; against Cytochrome P450 2C9 it was 18 µM. In addition, the “growth inhibition (GI)” value is reported as 30 - 49% in [8], 74 - 87% in experiment [11] and 62 - 69% in experiment [12]. In addition, the inhibition in vivo at 200 mg/kg in experiment [13] is ≤ 48%.
